Assay results taken from US20110201578A1, “COMPOSITION AND METHODS FOR THE TREATMENT OF PSEUDOFOLLICULITIS BARBAE AND SKIN IRRITATION” (priority 2010, published 2011).

Legend:
[1] = pH of the acidic solution of the substance used by itself; assay type: physicochemical; details: acetylsalicyclic acid by itself, unbuffered
[2] = test system: skin; assay: Application to skin, detrimental effects; assay type: in vivo; details: used by itself, applied to skin; hours and/or days following application
Excerpt: The low pKa results in an acidic solution having a pH of about 1.9, which damages skin and results in skin peeling in the hours and/or days following application to skin.

pH of resulting acidic solution [1]: about 1.9
effect on skin [2]: acts as a skin peeler
SMILES: CC(=O)Oc1ccccc1C(=O)O [acetylsalicyclic acid]
